These results are taken from ChEMBL document CHEMBL4819127, “Syntheses and antimicrobial activities of ogipeptin derivatives” (Bioorg Med Chem Lett, 2021).

Structures are written as SMILES. Converted amounts (≈) assume the structure as drawn.

The test system of one series is Escherichia coli. Nature of the series: Antibacterial activity against Escherichia coli ATCC 47076 assessed as bacterial growth inhibition. It is filed as functional.
In series [1] the test system is Klebsiella pneumoniae. Nature of the series: Antibacterial activity against Klebsiella pneumoniae ATCC 10031 assessed as bacterial growth inhibition. It is filed as functional.
Series [2] concerns Acinetobacter baumannii. Put plainly: Antibacterial activity against Acinetobacter baumannii ATCC 19606 assessed as bacterial growth inhibition. It is filed as functional. The settings on record: ATCC 19606 = CIP 70.34 = JCM 6841.
The test system of series [3] is Pseudomonas aeruginosa. Put plainly: Antibacterial activity against Pseudomonas aeruginosa ATCC 27853 assessed as bacterial growth inhibition. The format is functional.
For series [4], the system named is Klebsiella pneumoniae. Put plainly: Antibacterial activity against Klebsiella pneumoniae ATCC 700721 assessed as bacterial growth inhibition. The format is functional.
For series [5], the system named is Klebsiella pneumoniae. Nature of the series: Antibacterial activity against Klebsiella pneumoniae JCM 1662 assessed as bacterial growth inhibition. It is filed as functional.
Series [6] has as its system Pseudomonas aeruginosa. Put plainly: Antibacterial activity against Pseudomonas aeruginosa ATCC 15692 assessed as bacterial growth inhibition. The format is functional.
In series [7] the test system is Klebsiella pneumoniae. Put plainly: Antibacterial activity against Klebsiella pneumoniae IHMA 1387833 assessed as bacterial growth inhibition. The format is functional.
The test system of series [8] is Acinetobacter baumannii. Nature of the series: Antibacterial activity against Acinetobacter baumannii IHMA 1312713 assessed as bacterial growth inhibition. The format is functional.
In series [9] the test system is Pseudomonas aeruginosa. Put plainly: Antibacterial activity against Pseudomonas aeruginosa IHMA 1375891 assessed as bacterial growth inhibition. It is filed as functional.
A short description of series [10]: Cytotoxicity against HEK293 cells. The format is cell-based. The settings on record: human, HEK293 cells.
A further series deals with HepG2. Put plainly: Cytotoxicity against human HepG2 cells. It is filed as functional.

The term MIC denotes the least concentration at which growth counts as inhibited. For orientation: CC50 means the concentration that lowers cell viability or growth by half. A low value points to harm at low concentration. For the compound `C/C=C1\NC(=O)C(NC(=O)c2cn3c4c(c(F)c(F)cc4c2=O)OC[C@@H]3C)C(O)CNC(=O)C(C(O)CN)NC(=O)C(C(O)CN)NC(=O)[C@H](CCCNC(=N)N)NC(=O)[C@H](CC(C)C)NC(=O)[C@H](CCN)NC1=O` (stereo partly drawn), the MIC with Escherichia coli was 32 µg/mL (≈ 30.1 µM); with Klebsiella pneumoniae [1], greater than 64 µg/mL; in the series with Acinetobacter baumannii [2], greater than 64 µg/mL; with Pseudomonas aeruginosa [3], 16 µg/mL (≈ 15 µM); with Klebsiella pneumoniae [4], 64 µg/mL (≈ 60.1 µM); in the series on Klebsiella pneumoniae [5] it was greater than 64 µg/mL. Moreover, the MIC in the series on Pseudomonas aeruginosa [6], in the series with Klebsiella pneumoniae [7], with Acinetobacter baumannii [8] and in the series on Pseudomonas aeruginosa [9] was greater than 64 µg/mL each time. The CC50 (in series [10]; in the series with HepG2) was greater than 64 µM throughout.

With `C/C=C1\NC(=O)C(NC(=O)CCc2nc(-c3ccncc3)no2)C(O)CNC(=O)C(C(O)CN)NC(=O)C(C(O)CN)NC(=O)[C@H](CCCNC(=N)N)NC(=O)[C@H](CC(C)C)NC(=O)[C@H](CCN)NC1=O` (stereo partly drawn), the minimal inhibitory concentration (MIC) was 2 µg/mL (≈ 2 µM) with Escherichia coli; 8 µg/mL (≈ 7.98 µM) with Klebsiella pneumoniae [1]; 256 µg/mL (≈ 255 µM) in the series on Acinetobacter baumannii [2]; greater than 256 µg/mL in the series on Pseudomonas aeruginosa [3]; 32 µg/mL (≈ 31.9 µM) in the series with Klebsiella pneumoniae [4]; greater than 256 µg/mL in the series on Klebsiella pneumoniae [5]. Further, the MIC in the series with Pseudomonas aeruginosa [6], in the series with Klebsiella pneumoniae [7], in the series with Acinetobacter baumannii [8] and with Pseudomonas aeruginosa [9] was greater than 256 µg/mL throughout. The CC50 (in series [10]; in the series with HepG2) was greater than 64 µM each time.

Take `C/C=C1\NC(=O)C(NC(=O)[C@H]2CC[C@H](CNC(=O)OCc3ccccc3)CC2)C(O)CNC(=O)C(C(O)CN)NC(=O)C(C(O)CN)NC(=O)[C@H](CCCNC(=N)N)NC(=O)[C@H](CC(C)C)NC(=O)[C@H](CCN)NC1=O` (stereo partly drawn): the MIC with Escherichia coli is 8 µg/mL (≈ 7.45 µM); in the series on Klebsiella pneumoniae [1], 32 µg/mL (≈ 29.8 µM); in the series on Acinetobacter baumannii [2], 256 µg/mL (≈ 238 µM); in the series with Pseudomonas aeruginosa [3], 8 µg/mL (≈ 7.45 µM); in the series with Klebsiella pneumoniae [4] it was greater than 256 µg/mL; in the series on Klebsiella pneumoniae [5], greater than 256 µg/mL. Also, the minimal inhibitory concentration (MIC) in the series on Pseudomonas aeruginosa [6], with Klebsiella pneumoniae [7], in the series on Acinetobacter baumannii [8] and with Pseudomonas aeruginosa [9] was greater than 256 µg/mL throughout. Besides, the CC50 (in series [10]; in the series with HepG2) was greater than 64 µM throughout.

As to `C/C=C1\NC(=O)C(NC(=O)c2ccc(-c3cc(-c4ccc(OCCCCC)cc4)on3)cc2)C(O)CNC(=O)C(C(O)CN)NC(=O)C(C(O)CN)NC(=O)[C@H](CCCNC(=N)N)NC(=O)[C@H](CC(C)C)NC(=O)[C@H](CCN)NC1=O` (stereo partly drawn), the minimum inhibitory concentration (MIC) in the series with Escherichia coli was determined as 8 µg/mL (≈ 7.05 µM); with Klebsiella pneumoniae [1] it was 8 µg/mL (≈ 7.05 µM); in the series with Acinetobacter baumannii [2] it was 16 µg/mL (≈ 14.1 µM); with Pseudomonas aeruginosa [3], 16 µg/mL (≈ 14.1 µM); with Klebsiella pneumoniae [4] it was 128 µg/mL (≈ 113 µM); in the series with Klebsiella pneumoniae [5], 256 µg/mL (≈ 226 µM). The minimum inhibitory concentration (MIC) in the series on Pseudomonas aeruginosa [6] is 64 µg/mL (≈ 56.4 µM); in the series on Klebsiella pneumoniae [7], 256 µg/mL (≈ 226 µM); with Acinetobacter baumannii [8], 32 µg/mL (≈ 28.2 µM); in the series with Pseudomonas aeruginosa [9], 128 µg/mL (≈ 113 µM). Besides, in the series with HepG2, it took 35 µM to reach half-maximal cytotoxicity (CC50).

Consider `C/C=C1\NC(=O)C(NC(=O)c2ccc(NS(=O)(=O)Cc3ccccc3)cc2)C(O)CNC(=O)C(C(O)CN)NC(=O)C(C(O)CN)NC(=O)[C@H](CCCNC(=N)N)NC(=O)[C@H](CC(C)C)NC(=O)[C@H](CCN)NC1=O` (stereo partly drawn), for which the minimal inhibitory concentration (MIC) with Escherichia coli is 16 µg/mL (≈ 14.9 µM); in the series with Klebsiella pneumoniae [1] it was 128 µg/mL (≈ 119 µM); with Acinetobacter baumannii [2] it was greater than 256 µg/mL; with Pseudomonas aeruginosa [3], 256 µg/mL (≈ 238 µM); with Klebsiella pneumoniae [4], greater than 256 µg/mL; in the series on Klebsiella pneumoniae [5], greater than 256 µg/mL. Moreover, the minimal inhibitory concentration (MIC) with Pseudomonas aeruginosa [6], in the series on Klebsiella pneumoniae [7], in the series on Acinetobacter baumannii [8] and in the series with Pseudomonas aeruginosa [9] was greater than 256 µg/mL each time. Moreover, the 50% cytotoxic concentration (CC50) (in series [10]; in the series with HepG2) was greater than 64 µM in each case.

`C/C=C1\NC(=O)C(NC(=O)c2ccc(-c3nnn(CC(=O)N(C)C)n3)cc2)C(O)CNC(=O)C(C(O)CN)NC(=O)C(C(O)CN)NC(=O)[C@H](CCCNC(=N)N)NC(=O)[C@H](CC(C)C)NC(=O)[C@H](CCN)NC1=O` (stereo partly drawn): the MIC in the series with Escherichia coli was 16 µg/mL (≈ 15.1 µM); in the series on Klebsiella pneumoniae [1], 256 µg/mL (≈ 242 µM); in the series on Acinetobacter baumannii [2], greater than 256 µg/mL; in the series on Pseudomonas aeruginosa [3], 128 µg/mL (≈ 121 µM); with Klebsiella pneumoniae [4] it was greater than 256 µg/mL; in the series with Klebsiella pneumoniae [5] it was greater than 256 µg/mL. Moreover, the MIC in the series with Pseudomonas aeruginosa [6], in the series on Klebsiella pneumoniae [7], in the series on Acinetobacter baumannii [8] and in the series on Pseudomonas aeruginosa [9] was greater than 256 µg/mL throughout. In addition, the CC50 (in series [10]; with HepG2) was greater than 64 µM in each case.

In the case of `C/C=C1\NC(=O)C(NC(=O)Cc2c(C)n(C(=O)c3ccc(Cl)cc3)c3ccc(OC)cc23)C(O)CNC(=O)C(C(O)CN)NC(=O)C(C(O)CN)NC(=O)[C@H](CCCNC(=N)N)NC(=O)[C@H](CC(C)C)NC(=O)[C@H](CCN)NC1=O` (stereo partly drawn), the minimal inhibitory concentration (MIC) is 2 µg/mL (≈ 1.75 µM) in the series with Escherichia coli; 4 µg/mL (≈ 3.51 µM) in the series on Klebsiella pneumoniae [1]; 32 µg/mL (≈ 28.1 µM) in the series with Acinetobacter baumannii [2]; 8 µg/mL (≈ 7.01 µM) in the series on Pseudomonas aeruginosa [3]; greater than 256 µg/mL in the series with Klebsiella pneumoniae [4]; greater than 256 µg/mL in the series on Klebsiella pneumoniae [5]. Besides, the minimal inhibitory concentration (MIC) with Pseudomonas aeruginosa [6] was 32 µg/mL (≈ 28.1 µM); in the series on Klebsiella pneumoniae [7] it was greater than 256 µg/mL; in the series on Acinetobacter baumannii [8], greater than 256 µg/mL; in the series on Pseudomonas aeruginosa [9], 64 µg/mL (≈ 56.1 µM). In addition, the CC50 (in series [10]; in the series with HepG2) was greater than 64 µM each time.
